Results from PubChem BioAssay (NCI).
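Compound exposure: 48 hours, 5 concentrations, 96-well plates. The concentration for 50% growth inhibition is given as GI50. TGI denotes the concentration required for complete inhibition of growth.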

Key:
Experiment in all cases: NCI tumour cell line growth inhibition, 48 h
[1] = system: RPMI-8226 leukemia
[2] = system: CCRF-CEM leukemia
[3] = system: NCI-H226 lung
[4] = system: K-562 leukemia
[5] = system: HOP-92 NSCLC
[6] = system: SK-MEL-28 melanoma
[7] = system: A498 renal
[8] = system: MCF7 breast
[9] = system: TK-10 renal
[10] = system: UACC-62 melanoma
[11] = system: SK-OV-3 ovarian
[12] = system: SR leukemia
[13] = system: A549 NSCLC
[14] = system: MDA-MB-435
[15] = system: DU-145 prostate
[16] = system: ACHN renal
[17] = system: SF-539 CNS
[18] = system: SNB-19 CNS
[19] = system: KM12 colon
[20] = system: COLO 205 colon
[21] = system: IGROV1 ovarian
[22] = system: U251 CNS
[23] = system: OVCAR-4 ovarian
[24] = system: MOLT-4 leukemia
[25] = system: RXF 393 renal
[26] = system: OVCAR-8 ovarian
[27] = system: HL-60(TB) leukemia
[28] = system: SN12C renal
[29] = system: SW-620 colon

CC[C@H](CO)Nc1ccc2ncc(C#Cc3cncc(C(=O)Nc4ccc(CN5CCN(C)CC5)c(C(F)(F)F)c4)c3)n2n1
GI50 [1]: 577 nM | TGI [1]: 1800 nM | GI50 [2]: 188 nM | TGI [2]: 1370 nM | GI50 [3]: 205 nM | TGI [3]: 1170 nM | GI50 [4]: 15.8 nM | TGI [4]: 636 nM | GI50 [5]: 70 nM | TGI [5]: 307 nM | GI50 [6]: 681 nM | TGI [6]: 1490 nM | GI50 [7]: 266 nM | TGI [7]: 721 nM | GI50 [8]: 163 nM | TGI [8]: 807 nM | GI50 [9]: 1000 nM | TGI [9]: 2450 nM | GI50 [10]: 767 nM | TGI [10]: 1570 nM | GI50 [11]: 1190 nM | TGI [11]: 2780 nM | GI50 [12]: 196 nM | TGI [12]: 888 nM | GI50 [13]: 356 nM | TGI [13]: 1450 nM | GI50 [14]: 451 nM | TGI [14]: 1090 nM | GI50 [15]: 579 nM | TGI [15]: 1430 nM | GI50 [16]: 442 nM | TGI [16]: 1130 nM | GI50 [17]: 45.4 nM | TGI [17]: 266 nM | GI50 [18]: 880 nM | TGI [18]: 3280 nM | GI50 [19]: 16.5 nM | TGI [19]: 1180 nM | GI50 [20]: 126 nM | TGI [20]: 319 nM | GI50 [21]: 152 nM | TGI [21]: 835 nM | GI50 [22]: 580 nM | TGI [22]: 1310 nM | GI50 [23]: 507 nM | TGI [23]: 2540 nM | GI50 [24]: 239 nM | TGI [24]: 1940 nM | GI50 [25]: 273 nM | TGI [25]: 910 nM | GI50 [26]: 589 nM | TGI [26]: 1320 nM | GI50 [27]: 218 nM | TGI [27]: 648 nM | GI50 [28]: 160 nM | TGI [28]: 1030 nM | GI50 [29]: 186 nM
